In the NIST ThermoML archive (doi:10.1021/acs.jced.7b00221):

Experiment: xn = mol fraction of the nth substance listed
Conditions: 100 kPa, Liquid; for viscosity: Cone and plate viscometry; for mass density: Vibrating tube method

CCCCCCCC[P+](CC)(CC)CC.O=[N+]([O-])c1cn[n-]c1 [triethyloctylphosphonium 4-nitropyrazolide] + CCCCCCn1cc[n+](C)c1C.O=S(=O)([N-]S(=O)(=O)C(F)(F)F)C(F)(F)F
Conditions	mass density [kg/m3]	viscosity [mPa·s]
278.15 K, x1 = 0.124	–	602
278.15 K, x1 = 0.25	–	771
278.15 K, x1 = 0.401	–	1011
278.15 K, x1 = 0.5	–	1156
278.15 K, x1 = 0.6	–	1244
278.15 K, x1 = 0.751	–	1382
278.15 K, x1 = 0.9	–	1386
283.15 K, x1 = 0.124	1331.5	409
283.15 K, x1 = 0.25	1290	510
283.15 K, x1 = 0.401	–	658
283.15 K, x1 = 0.5	1206.7	742
283.15 K, x1 = 0.6	–	795
283.15 K, x1 = 0.751	1123.8	883
283.15 K, x1 = 0.9	1074.2	890
283.15 K, x1 = 1	1040.7	–
288.15 K, x1 = 0.124	1327.1	283
288.15 K, x1 = 0.25	1285.9	348
288.15 K, x1 = 0.401	–	442
288.15 K, x1 = 0.5	1203	491
288.15 K, x1 = 0.6	–	524
288.15 K, x1 = 0.751	1120.4	580
288.15 K, x1 = 0.9	1071	589
288.15 K, x1 = 1	1037.7	–
293.15 K, x1 = 0.124	1322.8	204
293.15 K, x1 = 0.25	1281.8	246
293.15 K, x1 = 0.401	–	307
293.15 K, x1 = 0.5	1199.2	338
293.15 K, x1 = 0.6	–	359
293.15 K, x1 = 0.751	1117	396
293.15 K, x1 = 0.9	1067.8	404
293.15 K, x1 = 1	1034.6	–
295.15 K, x1 = 0.124	1321	–
295.15 K, x1 = 0.25	1280.1	–
295.15 K, x1 = 0.5	1197.7	–
295.15 K, x1 = 0.751	1115.6	–
295.15 K, x1 = 0.9	1066.5	–
295.15 K, x1 = 1	1033.4	–
298.15 K, x1 = 0.124	1318.5	151
298.15 K, x1 = 0.25	1277.6	179
298.15 K, x1 = 0.401	–	220
298.15 K, x1 = 0.5	1195.5	241
298.15 K, x1 = 0.6	–	254
298.15 K, x1 = 0.751	1113.6	279
298.15 K, x1 = 0.9	1064.6	285
298.15 K, x1 = 1	1031.5	–
303.15 K, x1 = 0.124	1314.3	115
303.15 K, x1 = 0.25	1273.7	135
303.15 K, x1 = 0.401	–	163
303.15 K, x1 = 0.5	1191.8	177
303.15 K, x1 = 0.6	–	185
303.15 K, x1 = 0.751	1110.2	203
303.15 K, x1 = 0.9	1061.4	208
303.15 K, x1 = 1	1028.5	–
308.15 K, x1 = 0.124	1310.1	90
308.15 K, x1 = 0.25	1269.7	104
308.15 K, x1 = 0.401	–	124
308.15 K, x1 = 0.5	1188.1	134
308.15 K, x1 = 0.6	–	139
308.15 K, x1 = 0.751	1106.9	152
308.15 K, x1 = 0.9	1058.3	156
308.15 K, x1 = 1	1025.5	–
313.15 K, x1 = 0.124	1306	72
313.15 K, x1 = 0.25	1265.7	82
313.15 K, x1 = 0.401	–	97
313.15 K, x1 = 0.5	1184.5	103
313.15 K, x1 = 0.6	–	106
313.15 K, x1 = 0.751	1103.7	117
313.15 K, x1 = 0.9	1055.3	119
313.15 K, x1 = 1	1022.6	–
318.15 K, x1 = 0.124	1301.8	58
318.15 K, x1 = 0.25	1261.7	65
318.15 K, x1 = 0.401	–	77
318.15 K, x1 = 0.5	1180.9	82
318.15 K, x1 = 0.6	–	83
318.15 K, x1 = 0.751	1100.4	91
318.15 K, x1 = 0.9	1052.2	94
318.15 K, x1 = 1	1019.6	–
323.15 K, x1 = 0.124	1297.6	–
323.15 K, x1 = 0.25	1257.7	53
323.15 K, x1 = 0.401	–	63
323.15 K, x1 = 0.5	1177.3	66
323.15 K, x1 = 0.6	–	67
323.15 K, x1 = 0.751	1097.1	73
323.15 K, x1 = 0.9	1049.1	75
323.15 K, x1 = 1	1016.7	–
328.15 K, x1 = 0.124	1293.5	–
328.15 K, x1 = 0.25	1253.8	–
328.15 K, x1 = 0.5	1173.7	–
328.15 K, x1 = 0.751	1093.9	–
328.15 K, x1 = 0.9	1046.1	–
328.15 K, x1 = 1	1013.8	–
333.15 K, x1 = 0.124	1289.3	–
333.15 K, x1 = 0.25	1249.8	–
333.15 K, x1 = 0.5	1170.2	–
333.15 K, x1 = 0.751	1090.6	–
333.15 K, x1 = 0.9	1043	–
333.15 K, x1 = 1	1010.8	–
338.15 K, x1 = 0.124	1285.1	–
338.15 K, x1 = 0.25	1245.8	–
338.15 K, x1 = 0.5	1166.6	–
338.15 K, x1 = 0.751	1087.4	–
338.15 K, x1 = 0.9	1040	–
338.15 K, x1 = 1	1007.9	–
343.15 K, x1 = 0.124	1281	–
343.15 K, x1 = 0.25	1241.9	–
343.15 K, x1 = 0.5	1163	–
343.15 K, x1 = 0.751	1084.1	–
343.15 K, x1 = 0.9	1036.9	–
343.15 K, x1 = 1	1005	–
348.15 K, x1 = 0.124	1276.9	–
348.15 K, x1 = 0.25	1237.9	–
348.15 K, x1 = 0.5	1159.5	–
348.15 K, x1 = 0.751	1080.9	–
348.15 K, x1 = 0.9	1033.9	–
348.15 K, x1 = 1	1002.1	–
353.15 K, x1 = 0.124	1272.7	–
353.15 K, x1 = 0.25	1234	–
353.15 K, x1 = 0.5	1155.9	–
353.15 K, x1 = 0.751	1077.7	–
353.15 K, x1 = 0.9	1030.9	–
353.15 K, x1 = 1	999.2	–

CCCCCCCCCCCCCC[P+](CCCCCC)(CCCCCC)CCCCCC.N#Cc1ccc[n-]1 [trihexyl(tetradecyl)phosphonium 2-cyanopyrrolide] + CCCCCC[n+]1ccn(C)c1.O=S(=O)([N-]S(=O)(=O)C(F)(F)F)C(F)(F)F
viscosity [mPa·s]
Conditions	278.15 K	283.15 K	288.15 K	293.15 K	298.15 K	303.15 K	308.15 K	313.15 K	318.15 K	323.15 K
x1 = 0.1	337	240	176	132	101	80	64	52	–	–
x1 = 0.2	520	363	259	190	144	111	88	71	58	–
x1 = 0.3	662	455	319	229	170	129	100	79	64	52
x1 = 0.4	900	608	420	298	217	162	125	97	78	63
x1 = 0.496	1216	815	558	392	284	210	160	123	98	79
x1 = 0.6	1407	938	638	445	319	236	177	136	107	85
x1 = 0.698	1684	1117	755	525	376	275	207	158	124	99
x1 = 0.8	1749	1160	785	546	391	286	214	163	128	102
x1 = 0.898	1844	1223	830	578	414	303	228	173	135	108
x1 = 1	1764	1179	804	563	404	297	223	170	133	106
